Drawing on US20120238557A1, “AMINOTHIAZINE OR AMINOOXAZINE DERIVATIVE HAVING AMINO LINKER” (SHIONOGI & CO., LTD., priority 2009, published 2012), this text covers IC50 and Kp for one molecule.

One data set deals with T1, Recombinant human BACE1 (Homo sapiens, UniProt P56817).
T1 construct: purchased R&D Systems
Nature of the data set: Assay of BACE1 inhibiting activity. The format is biochemical. The note with it: 50% inhibitory concentration against enzymatic activity of recombinant human BACE1; Table 2.

The subject of data set [1] is Neuroblastoma SH-SY5Y cells (SH/APPwt) with human wild-type β-APP excessively expressed. Put plainly: Measurement of β-amyloid (Aβ) production inhibitory effect in cell. In kind it is cell-based. The note with it: amount needed to inhibit Aβ production by 50%, SH/APPwt cells, 24 hours, Table 3, read-out: IC50. As to the method:
Neuroblastoma SH-SY5Y cells (SH/APPwt) with human wild-type β-APP excessively expressed therein were prepared at 8×10^5 cells/mL, and 150 μl portions thereof were inoculated into each well of a 96-well culture plate (Falcon). The cells were cultured for 2 hours at 37° C. in a 5% gaseous carbon dioxide incubator. Then, a solution which had been preliminarily prepared by adding and suspending the test compound (DMSO (dimethyl sulfoxide) solution) so as to be 2 μl/50 μl medium was added to the cell sap. Namely, the final DMSO concentration was 1%, and the amount of the cell culture was 200 μl. After the incubation was performed for 24 hours from the addition of the test compound, 100 μl of the culture supernatant was collected from each fraction. The amount of the Aβ in each fraction was measured.
The Aβ amount was measured as follows. 10 μl of a homogeneous time resolved fluorescence (HTRF) measurement reagent (Amyloid β 1-40 peptide; IBA Molecular Holding, S. A.) and 10 μl of the culture supernatant were put into a 384-well half area microplate (black microplate, Costar) and mixed with each other, and then left standing overnight at 4° C. while the light was shielded. Then, the fluorescence intensity (excitation wavelength: 337 nm, measurement wavelength: 620 nm and 665 nm) was measured with a Wallac 1420 multilabel counter (Perkin Elmer life sciences).

Data set [2] can be described thus: Brain distribution studies. In kind it is in vivo. The note with it: brain/plasma; rat, intravenous 0.5 mg/mL/kg, 30 minutes later; read-out: brain Kp value (area ratio brain/plasma). As to the method:
Intravenous administration is carried out to a rat by 0.5 mg/mL/kg dosage of the compound. […] Then, the brain was extracted and 20-25% of homogenate thereof was prepared with distilled water. On the other hand, the obtained blood is used as plasma after centrifuging. Then, to the brain sample was added the control plasma at 1:1. To the plasma samples was added the control brains at 1:1. Each sample was measured using LC/MS/MS. The obtained area ratio (a brain/plasma) was used for the brain Kp value.

The term IC50 denotes the point on the concentration scale where inhibition reaches its midpoint.

T1 sequence (P56817 46-501): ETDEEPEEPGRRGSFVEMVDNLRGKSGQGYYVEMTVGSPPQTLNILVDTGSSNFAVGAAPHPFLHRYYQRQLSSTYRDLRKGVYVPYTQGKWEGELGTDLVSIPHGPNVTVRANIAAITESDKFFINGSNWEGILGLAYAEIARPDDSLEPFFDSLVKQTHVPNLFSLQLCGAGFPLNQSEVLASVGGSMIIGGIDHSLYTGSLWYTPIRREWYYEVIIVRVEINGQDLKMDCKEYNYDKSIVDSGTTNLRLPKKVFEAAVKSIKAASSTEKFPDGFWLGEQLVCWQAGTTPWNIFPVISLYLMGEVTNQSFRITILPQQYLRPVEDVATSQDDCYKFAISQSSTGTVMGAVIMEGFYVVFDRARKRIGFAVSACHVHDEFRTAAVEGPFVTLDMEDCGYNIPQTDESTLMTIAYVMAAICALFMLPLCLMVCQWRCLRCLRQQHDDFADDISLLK

As for `C[C@@]1(c2cc(Nc3ncccc3C#N)ccc2F)CCSC(N)=N1` [Compound I-11], the IC50 was found to be 100 nM at Recombinant human BACE1 and 9 nM in data set [1]. Moreover, the Kp at 0.5 h in data set [2] was 2.2.
